Source: publication PMC10254852, “Design, Synthesis and Anticancer Evaluation of Nitroimidazole Radiosensitisers” (Molecules, 2023)
Values after ≈ are worked out from the molar mass of the structure shown. Where two headings read alike, the source gives them in different places.

Experiments:
HCT116/54C cells [1] = assay: In vitro cytotoxicity, 4 h exposure oxic/anoxic, 5-day regrowth, sulforhodamine B; type: cell-based, human; details: HCT116/54C; for HCR: IC50(oxic)/IC50(anoxic); for IC50: Homo sapiens, 4 h exposure, mean ± SEM, n = 3–4
Excerpt: (§1) This allowed derivation of hypoxia cytotoxicity ratios (HCR) as IC50(oxic)/IC50(anoxic) in an HCT116 subclone HCT116/54C and two HNSCC cell lines, FaDu and UT-SCC-74B (Table 2).
(§2) HCT116/54C is an HCT116 subline that originated from a mixed culture with UT-SCC-54C cells, which was supplied alongside UT-SCC-74B by Prof. Bradly Wouters (University Health Network, Toronto, ON, Canada). HCT116/54C and UT-SCC-74B cells were passaged in minimum essential media (MEM, ThermoFisher Scientific, Waltham, MA, USA) with 10% foetal calf serum (FCS, Moregate Biotech, Hamilton, New Zealand), 4.5 mg/mL D-glucose (Sigma-Aldrich, St. Louis, MO, USA) and 20 mM HEPES (Sigma-Aldrich). FaDu cells were sourced from American Type Culture Collection and cultured in αMEM (ThermoFisher Scientific) with 10% FCS. All cell lines were confirmed mycoplasma-free by PlasmoTest (InvivoGen, San Diego, CA, USA) and were derived from STR-authenticated cryopreserved stocks. Log-phase cells were seeded into 96-well plates at 800 cells/well for HCT116/54C and 1500 cells/well for FaDu. […] After drug washout, cells were grown and stained as for the oxic IC50 assays. The hypoxic cytotoxicity ratio HCR was determined as HCR = IC50(oxic)/IC50(anoxic).

FaDu cells = assay: as above; type: cell-based; details: for IC50: Homo sapiens, 4 h exposure, mean ± SEM; for HCR: IC50(oxic)/IC50(anoxic)
Excerpt: as §1, §2

HCT116/54C cells [2] = assay: In vitro radiosensitisation under anoxia, clonogenic survival; type: cell-based, human; details: compound 1 mM, radiation dose for 1% survival/radiation dose for 1% survival with compound, mean ± SEM
Experimental: Next, we evaluated in vitro radiosensitisation by using a representative subset of nitroimidazole compounds in HCT116/54C cells with a clonogenic survival endpoint. Radiosensitisation was determined by treating cells under anoxia with a range of radiation doses alone and with compounds at equimolar doses (1 mM). Sensitiser enhancement ratios (SER) were calculated as the ratio of radiation dose required for 1% clonogenic survival alone or with compound (Table 3).
Cells were seeded onto 96-well plates at 10^5 cells per well and allowed to attach for 2 h. […] The plates were irradiated (Eldorado 78 ^60Co teletherapy unit, ~2 Gy/min) with 15 Gy under anoxia at room temperature for SR experiments. A metal wedge placed on the top of the metal chamber was used to achieve a graduated radiation dose across the plate, varying from 7 to 29 Gy, calibrated by Fricke dosimetry with ammonium thiocyanate as previously described for SER experiments. The control plate (compound alone, no radiation) was left inside the anaerobic chamber at room temperature during the irradiation period. After treatment, the cells were trypsinized and suspended in usual media + 1% penicillin-streptomycin (ThermoFisher Scientific), and 10-fold serial dilutions were plated for clonogenic survival. After 10 days, plates were stained with methylene blue (2 g/L in EtOH/H2O, 1:1 v/v) and colonies with more than 50 cells were counted. The surviving fraction (SF) was determined as: SF = PE(irradiated)/PE(control) where the plating efficiency (PE) = (No. of colonies)/(No. of cells plated). SF was plotted against radiation dose. Survival ratios (SR) were calculated: SR = (cell survival with radiation)/(cell survival with drug + radiation). Sensitizer enhancement ratios (SER) were calculated: SER = (radiation dose for 1% survival without compound)/(radiation dose for 1% survival with compound).

[3] = tested on: HCT116/54C tumour xenografts; assay: Tumour growth inhibition in combination with radiation; type: in vivo, NIH-III mice; details: HCT116/54C tumours, fractionated radiation, p < 0.05
Experimental: (§3) Specific pathogen-free six- to eight-week-old female NIH-III mice, bred in the Vernon Jansen Unit, University of Auckland, were used for animal experiments. Animals had ad libitum access to food and water and were maintained in microisolator cages on a 12 h light/dark cycle. All treatments were administered by i.v. injection at a dose of 2.2 mmol/kg and injection volume of 10 mL/kg. Compounds 2, 34 and 38 were administered as solutions in saline containing 1% DMSO or for 9–12 as solutions in saline containing 2 molar equivalents of NaHCO3. Control animals received an i.v. injection of saline at 10 mL/kg. All animal experiments were conducted under the auspices of the University of Auckland Animal Ethics Committee (approval 1781).
Compounds were evaluated for their ability to inhibit tumour growth in combination with a single dose of radiation (10 Gy) in HCT116/54C or UT-SCC-74B tumour xenografts on the backs of NIH-III mice. In addition, a fractionated radiation schedule (5 Gy on Days 1, 7 and 14) was explored in HCT116/54C tumour xenografts. Mice were randomly assigned to 4 treatment groups and treated with: (A) vehicle control, (B) 10 Gy RAD only, (C) sensitiser only, or (D) sensitiser given 10 min before 10 Gy RAD. Drugs were administered by i.v. injection at 2.2 mmol/kg either as a single dose or three doses on Days 1, 7 and 14 in the fractionated study. Treatment commenced when the average tumour size reached approximately 250 mm^3, and tumour size was measured until study endpoint. Mice were placed in a custom-built lead-shielded jig that allowed irradiation of the whole tumour but shielded the mouse from radiation. Survival analysis represented the time taken for tumours to increase in relative tumour volume by 4× from the start of treatment (RTV^4). The significance of differences in activity between the groups was assessed by log-rank with Holm–Sidak multiple comparison analysis.

[4] = parameters: method as in PMID 29253343; details: NIH-III mice, 2.2 mmol/kg i.v., cited from earlier work; for Cmax: read-out: Plasma Cmax
UT-SCC-74B tumours = assay: Tumour radiosensitisation: ex vivo clonogenic assay; type: in vivo, NIH-III mice; details: for Sensitisation Ratio: 2.2 mmol/kg i.v. 5 min prior to 10 Gy radiation, surviving fraction after radiation/surviving fraction after drug + radiation; for enhancement of tumour cell killing by radiotherapy (RAD vs drug + RAD): 2.2 mmol/kg i.v. + 10 Gy, one-way ANOVA
Experimental: as §3
(§4) Compounds were evaluated for in vivo radiosensitisation of hypoxic cells in HCT116/54C and UT-SCC-74B human tumour xenografts using clonogenic survival as an endpoint, using previously report methods. Tumours were grown subcutaneously on the flanks of NIH-III mice by injecting 5 × 10^6 HCT116/54C cells or UT-SCC-74B cells. Once tumours reached a volume of approximately 250 mm^3, mice were randomly assigned to 4 treatment groups and treated with: (A) vehicle control, (B) 10 Gy RAD only, (C) sensitiser only, or (D) sensitiser given before 10 Gy RAD. Drugs were administered as a single i.v. dose at 2.2 mmol/kg. […] Tumours were excised 18 h after treatment, and tumour cells were dissociated enzymatically and plated to determine the number of surviving (clonogenic) cells per gram of tumour tissue. SF and SR were calculated as described above. Statistical significance of drug effects was tested using one-way ANOVA with Sidak tests for multiple comparisons vs. radiation alone (Table 5).

HCT116/54C tumours = assay: as above; type: in vivo, NIH-III mice; details: for Sensitisation Ratio: 2.2 mmol/kg i.v. 5 min prior to 10 Gy radiation, surviving fraction after radiation/surviving fraction after drug + radiation; for enhancement of tumour killing of radiotherapy (RAD vs drug + RAD): 2.2 mmol/kg i.v. + 10 Gy, one-way ANOVA
Experimental: as §3, §4

UT-SCC-74B cells = assay: In vitro cytotoxicity, 4 h exposure oxic/anoxic, 5-day regrowth, sulforhodamine B; type: cell-based, human; details: for IC50: Homo sapiens, 4 h exposure, mean ± SEM; for HCR: IC50(oxic)/IC50(anoxic)
Excerpt: as §1, §2

[5] = parameters: method as in PMID 29253343; details: comparison values for earlier alcohols; cited from earlier work
[6] = Solubility in αMEM culture medium (HPLC of saturated solutions); type: physicochemical; details: αMEM culture medium with 5% foetal calf serum and 1% DMSO, plasma or biological fluid, kinetic from dmso stock, α-MEM culture medium containing 5% foetal calf serum, 37 °C
[7] = Stability in αMEM culture medium (HPLC after 24 h); type: physicochemical; details: after 24 h incubation at 37 °C
Experimental: The stability of the same solutions after 24 h incubation at 37 °C was measured by HPLC analysis.

[8] = anoxic, n = 3–4, read-out: IC50 Anoxic
[9] = oxic, n = 3–4, read-out: IC50 Oxic
[10] = drug alone 2.2 mmol/kg i.v., relative to untreated tumours

SMILES	HCR (HCT116/54C cells [1])	IC50 (HCT116/54C cells [1]; anoxic, read-out: IC50 Anoxic) [mM]	IC50 (HCT116/54C cells [1]; oxic, read-out: IC50 Oxic) [mM]	IC50 (FaDu cells; [8]) [mM]	IC50 (FaDu cells; [9]) [mM]	HCR (FaDu cells)	SER at 1 mM (HCT116/54C cells [2])	IC50 (UT-SCC-74B cells; [8]) [mM]	IC50 (UT-SCC-74B cells; [9]) [mM]	HCR (UT-SCC-74B cells)	solubility [6] [mM]	% Stability in αMEM [7] [%]	melting point [°C]	also measured
O=C(Cn1ccnc1[N+](=O)[O-])NCCO [Compound 2, etanidazole, reference compound]	>14.8	1.7 ± 0.2	> 25	1.5 ± 0.3	> 20	>13.3	1.18 ± 0.00							survival (time to RTV^4) vs radiation alone [3]: significantly increased survival compared to radiation alone; AUC [4]: 1820 µM·h; T1/2 [4]: 1.05 h; Cmax [4]: 3640 µM; Sensitisation Ratio (UT-SCC-74B tumours): 8.94; enhancement of tumour cell killing by radiotherapy (RAD vs drug + RAD) (UT-SCC-74B tumours): significantly enhanced tumour cell killing by radiotherapy; single agent cell kill (UT-SCC-74B tumours; [10]): 55.9 ± 1.1%; Sensitisation Ratio (HCT116/54C tumours): 3.34; enhancement of tumour killing of radiotherapy (RAD vs drug + RAD) (HCT116/54C tumours): significantly enhanced the tumour killing of radiotherapy
O=[N+]([O-])c1nccn1CS(=O)(=O)NCCO [Compound 5]	>21	0.29 ± 0.02	> 6.2	0.23 ± 0.01	2.3 ± 0.2	10.0	1.72 ± 0.06	0.24 ± 0.04	4.3 ± 0.8	17.7				aqueous solubility [5]: 18 mM (≈ 4.5 mg/mL)
O=[N+]([O-])c1cncn1CS(=O)(=O)NCCO [Compound 7]	3.3	1.4 ± 0.1	4.6 ± 0.3	1.4 ± 0.02	5.4 ± 0.7	4.0	1.41 ± 0.02	1.3 ± 0.04	4.2 ± 0.9	3.3				aqueous solubility [5]: 23 mM (≈ 5.76 mg/mL)
O=[N+]([O-])c1nccn1CS(=O)(=O)NCCOP(=O)(O)O [Compound 9]														AUC [4]: 550 µM·h; T1/2 [4]: 2.33 h; Cmax [4]: 920 µM; Sensitisation Ratio (UT-SCC-74B tumours): 9.64; enhancement of tumour cell killing by radiotherapy (RAD vs drug + RAD) (UT-SCC-74B tumours): significantly enhanced tumour cell killing by radiotherapy; Sensitisation Ratio (HCT116/54C tumours): 6.22; enhancement of tumour killing of radiotherapy (RAD vs drug + RAD) (HCT116/54C tumours): significantly enhanced the tumour killing of radiotherapy; single agent cell kill (HCT116/54C tumours; [10]): 65.7 ± 8.2%
O=[N+]([O-])c1nccn1CS(=O)(=O)NCC(O)CO (stereo not shown) [Compound 13, N-(2,3-Dihydroxypropyl)-1-(2-nitro-1H-imidazol-1-yl)methanesulfonamide]	3.5	4.1 ± 0.1	14.5 ± 2.9	4.3 ± 0.3	8.7 ± 1.1	2.0	1.00 ± 0.00	2.6 ± 0.1	10.3 ± 1.7	4.0	110 (≈ 30.8 mg/mL)	99.3	127 to 129	
O=[N+]([O-])c1nccn1CS(=O)(=O)NC(CO)C(O)CO (stereo not shown) [Compound 14, 1-(2-Nitro-1H-imidazol-1-yl)-N-(1,3,4-trihydroxybutan-2-yl)methanesulfonamide]	1.3	12.6 ± 0.5	16.4 ± 3	7.9 ± 1.1	5.3 ± 1.1	0.67	1.00 ± 0.00				95.8 (≈ 29.7 mg/mL)	98.5	128 to 131	
O=[N+]([O-])c1nccn1CCS(=O)(=O)NCC(O)CO (stereo not shown) [Compound 15, N-(2,3-Dihydroxypropyl)-2-(2-nitro-1H-imidazol-1-yl)ethane-1-sulfonamide]	>1.9	12.8 ± 4.4	> 25	7.3 ± 0.9	> 25	>3.4					84.3 (≈ 24.8 mg/mL)	99.9	120 to 123	
O=[N+]([O-])c1cncn1CCS(=O)(=O)NCCN1CCOCC1 [Compound 16, N-(2-Morpholinoethyl)-2-(5-nitro-1H-imidazol-1-yl)ethane-1-sulfonamide]	1.0	12.9 ± 0.9	12.8 ± 1.5	6.1 ± 0.8	> 16	>2.6	1.31 ± 0.01	10.3 ± 2.6	14.1 ± 2.1	1.4	83 (≈ 27.7 mg/mL)	99.9		
O=[N+]([O-])c1nccn1CCNS(=O)(=O)CCO [Compound 17, 2-Hydroxy-N-(2-(2-nitro-1H-imidazol-1-yl)ethyl)ethane-1-sulfonamide]	>5.3	3.2 ± 0.2	> 17	2.8 ± 0.6	> 18	>6.4	1.35 ± 0.02	2.9 ± 0.5	> 20	>6.8	> 101	100.0	124 to 127	
